This assay relates to CD2F1 mice, L1210 leukemia ip, survival T/C. The experiment in a line: NCI In Vivo Anticancer Drug Screen. Data for tumor model L1210 Leukemia (intraperitoneal) in CD2F1 (CDF1) mice. The conditions noted are these: higher = longer survival. An outline of the steps: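 Transplantable tumor in mice; compound-treated vs vehicle-treated groups. Read-out = treated/control ratio of the measured endpoint.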

The mark [1] stands for this setting: endpoint: mean survival time, dose: 100.0 mg/kg/injection, schedule: Q04DX003 (ip), vehicle: saline with Tween-80.
Where [2] appears, read: endpoint: mean survival time, dose: 200.0 mg/kg/injection, schedule: Q04DX003 (ip), vehicle: saline with Tween-80.
Setting [3] is: endpoint: mean survival time, dose: 100.0 mg/kg/injection, schedule: Q04DX003 (ip), vehicle: Klucel (hydroxypropylcellulose) (HPC).
The mark [4] stands for this setting: endpoint: mean survival time, dose: 200.0 mg/kg/injection, schedule: Q04DX003 (ip), vehicle: Klucel (hydroxypropylcellulose) (HPC).
[5] abbreviates: endpoint: mean survival time, dose: 100.0 mg/kg/injection, schedule: Q04DX003 (ip), vehicle: saline.
[6] abbreviates: endpoint: mean survival time, dose: 200.0 mg/kg/injection, schedule: Q04DX003 (ip), vehicle: saline.

From PubChem BioAssay AID256 (DTP/NCI, 2004) come the findings set out here.

Several values for one entry are separate records, joined by “and”; a condition that tells them apart may be missing. Identical values can stand only once. Toxic doses and inconclusive results are not listed. Starred links: 1 amine or outer side, 2 acyl side, 3 side chain; linkers in the order of their positions; H or OH if unused. Positions of bridges follow the written chain, without caps; N, C: chain ends. Non-standard residues stand in square brackets, D forms with d. Residues, ends and D or L forms follow the SMILES beside them. Chains are numbered I, II in the order given. Actinocin(9to1) = Cc1c2oc3c(C)ccc(C(=O)[*:1])c3nc-2c(C(=O)[*:2])c(N)c1=O; aThr = C[C@H](O)[C@H](N)C(=O)O; NMeV = CN[C@H](C(=O)O)C(C)C; Sar = CNCC(=O)O

In the case of `Cc1c2oc3c(C)ccc(C(=O)N[C@@H]4C(=O)N[C@H](C(C)C)C(=O)N5CCC[C@H]5C(=O)N(C)CC(=O)N(C)[C@@H](C(C)C)C(=O)O[C@H]4C)c3nc-2c(C(=O)N[C@@H]2C(=O)N[C@H](C(C)C)C(=O)N3CCC[C@H]3C(=O)N(C)CC(=O)N(C)[C@@H](C(C)C)C(=O)O[C@H]2C)c(N)c1=O` (I: [aThr][dV]P[Sar][NMeV] / II: [aThr][dV]P[Sar][NMeV]; ester I:1-I:C, II:1-II:C; linker I:N-II:N via Actinocin(9to1)), the T/C by setting is: (endpoint: mean survival time, dose: 0.01 mg/kg/injection, schedule: Q04DX003 (ip), vehicle: saline) 101 % of control; (endpoint: mean survival time, dose: 0.02 mg/kg/injection, schedule: Q04DX003 (ip), vehicle: saline) 105 % of control; (endpoint: mean survival time, dose: 0.03 mg/kg/injection, schedule: Q04DX003 (ip), vehicle: saline) 107 % of control; (endpoint: mean survival time, dose: 0.05 mg/kg/injection, schedule: Q04DX003 (ip), vehicle: saline) 110 % of control; (endpoint: mean survival time, dose: 0.06 mg/kg/injection, schedule: Q01DX009 (ip), vehicle: saline) 99 % of control; (endpoint: mean survival time, dose: 0.1 mg/kg/injection, schedule: Q01DX007 (ip), vehicle: other) 162 % of control. In addition, the T/C runs as follows: (endpoint: mean survival time, dose: 0.1 mg/kg/injection, schedule: Q01DX009 (ip), vehicle: other) 120 % of control; (endpoint: mean survival time, dose: 0.1 mg/kg/injection, schedule: Q03DX003 (ip), vehicle: other) 165 % of control; (endpoint: mean survival time, dose: 0.2 mg/kg/injection, schedule: Q01DX009 (ip), vehicle: other) 90 % of control; (endpoint: mean survival time, dose: 0.2 mg/kg/injection, schedule: Q01DX009 (ip), vehicle: saline) 88 % of control; (endpoint: mean survival time, dose: 0.2 mg/kg/injection, schedule: Q04DX003 (ip), vehicle: other) 164 % of control; (endpoint: mean survival time, dose: 0.4 mg/kg/injection, schedule: Q01DX001 (ip), vehicle: saline) 114 % of control and 120 % of control. For the same compound, the T/C (endpoint: mean survival time, dose: 0.4 mg/kg/injection, schedule: Q03DX003 (ip), vehicle: other) was 86 % of control; the T/C (endpoint: mean survival time, dose: 0.6 mg/kg/injection, schedule: Q01DX001 (ip), vehicle: saline) is 122 % of control; the T/C (endpoint: mean survival time, dose: 6.25 micrograms/kg/injection, schedule: Q01DX009 (ip), vehicle: saline + alcohol) was 104 % of control; the T/C (endpoint: mean survival time, dose: 6.3 micrograms/kg/injection, schedule: Q01DX009 (ip), vehicle: water) was 106 % of control; the T/C (endpoint: mean survival time, dose: 12.5 micrograms/kg/injection, schedule: Q01DX009 (ip), vehicle: saline + alcohol) was 107 % of control; the T/C (endpoint: mean survival time, dose: 12.5 micrograms/kg/injection, schedule: Q01DX009 (ip), vehicle: water) is 114 % of control and 112 % of control. The T/C (endpoint: mean survival time, dose: 25.0 micrograms/kg/injection, schedule: Q01DX009 (ip), vehicle: saline + alcohol) is 117 % of control; the T/C (endpoint: mean survival time, dose: 25.0 micrograms/kg/injection, schedule: Q01DX009 (ip), vehicle: water) was 118 % of control and 120 % of control; the T/C (endpoint: mean survival time, dose: 50.0 micrograms/kg/injection, schedule: Q01DX009 (ip), vehicle: saline + alcohol) is 109 % of control; the T/C (endpoint: mean survival time, dose: 100.0 micrograms/kg/injection, schedule: Q01DX009 (ip), vehicle: water) is 115 % of control; the T/C (endpoint: median survival time, dose: 0.07 mg/kg/injection, schedule: Q04DX003 (ip), vehicle: saline) is 122 % of control; the T/C (endpoint: median survival time, dose: 0.13 mg/kg/injection, schedule: Q01DX001 (ip), vehicle: saline) is 115 % of control and 117 % of control and 118 % of control. Also, the T/C is 118 % of control and 112 % of control (endpoint: median survival time, dose: 0.25 mg/kg/injection, schedule: Q01DX001 (ip), vehicle: saline); 89 % of control (endpoint: median survival time, dose: 0.33 mg/kg/injection, schedule: Q04DX003 (ip), vehicle: saline); 122 % of control (endpoint: median survival time, dose: 0.5 mg/kg/injection, schedule: Q01DX001 (ip), vehicle: saline); 113 % of control (endpoint: median survival time, dose: 12.5 micrograms/kg/injection, schedule: Q01DX009 (ip), vehicle: saline + alcohol); 117 % of control (endpoint: median survival time, dose: 25.0 micrograms/kg/injection, schedule: Q01DX009 (ip), vehicle: saline + alcohol); 166 % of control (endpoint: median survival time, dose: 200.0 micrograms/kg/injection, schedule: Q01DX009 (ip), vehicle: saline + alcohol).

Turning to `O=C1c2cc([N+](=O)[O-])ccc2-c2cc(Br)ccc21`, the T/C was 99 % of control under setting [1] and 91 % of control under setting [2].

For the compound `Cc1ccc(C(=O)OCCN2CCN(c3ccccc3)CC2)c([N+](=O)[O-])c1OCc1ccccc1`, the T/C is 98 % of control (endpoint: mean survival time, dose: 100.0 mg/kg/injection, schedule: Q04DX002 (ip), vehicle: other); 91 % of control (endpoint: mean survival time, dose: 200.0 mg/kg/injection, schedule: Q04DX002 (ip), vehicle: other); 91 % of control (endpoint: mean survival time, dose: 400.0 mg/kg/injection, schedule: Q04DX002 (ip), vehicle: other).

As for `CCOC(=O)C(CCC#N)(CCC#N)C(=O)O`, the T/C reads like this: (endpoint: mean survival time, dose: 100.0 mg/kg/injection, schedule: Q04DX002 (ip), vehicle: saline) 98 % of control; (endpoint: mean survival time, dose: 200.0 mg/kg/injection, schedule: Q04DX002 (ip), vehicle: saline) 111 % of control; (endpoint: mean survival time, dose: 400.0 mg/kg/injection, schedule: Q04DX002 (ip), vehicle: saline) 117 % of control.

`CCCCCC(C(O)C#N)C(O)(C(F)(F)F)C(F)(F)F` (configuration not stated): the T/C by setting is: under setting [3], 96 % of control; under setting [4], 96 % of control; (endpoint: mean survival time, dose: 400.0 mg/kg/injection, schedule: Q04DX003 (ip), vehicle: Klucel (hydroxypropylcellulose) (HPC)) 90 % of control.

On to `COc1cc2c(cc1OC)C(CCN)=NCC2`, for which the T/C is, setting by setting: (endpoint: mean survival time, dose: 25.0 mg/kg/injection, schedule: Q01DX009 (ip), vehicle: saline sonified) 98 % of control; (endpoint: mean survival time, dose: 50.0 mg/kg/injection, schedule: Q01DX009 (ip), vehicle: saline sonified) 98 % of control; (endpoint: mean survival time, dose: 100.0 mg/kg/injection, schedule: Q01DX009 (ip), vehicle: saline sonified) 93 % of control; under setting [5], 97 % of control.

In the case of `Nc1nc(N)c(N=Nc2cccc3ccccc23)c(N)n1`, the T/C runs as follows: (endpoint: mean survival time, dose: 6.25 mg/kg/injection, schedule: Q01DX009 (ip), vehicle: other) 98 % of control; (endpoint: mean survival time, dose: 12.5 mg/kg/injection, schedule: Q01DX009 (ip), vehicle: other) 96 % of control; (endpoint: mean survival time, dose: 25.0 mg/kg/injection, schedule: Q01DX009 (ip), vehicle: other) 95 % of control; (endpoint: mean survival time, dose: 25.0 mg/kg/injection, schedule: Q01DX009 (ip), vehicle: water) 103 % of control; (endpoint: mean survival time, dose: 50.0 mg/kg/injection, schedule: Q01DX009 (ip), vehicle: other) 95 % of control; (endpoint: mean survival time, dose: 50.0 mg/kg/injection, schedule: Q01DX009 (ip), vehicle: water) 104 % of control. Moreover, the T/C runs as follows: (endpoint: mean survival time, dose: 100.0 mg/kg/injection, schedule: Q01DX009 (ip), vehicle: other) 96 % of control; (endpoint: mean survival time, dose: 100.0 mg/kg/injection, schedule: Q01DX009 (ip), vehicle: water) 87 % of control.

In the case of `CC1CC1C(=O)O` (configuration not stated), the T/C runs as follows: under setting [5], 102 % of control; under setting [6], 102 % of control.

As for `Cc1cc(NC(=O)CCc2ccc(N)cc2)ccc1S(=O)(=O)F`, the T/C reads like this: (endpoint: mean survival time, dose: 25.0 mg/kg/injection, schedule: Q01DX009 (ip), vehicle: Klucel (hydroxypropylcellulose) (HPC)) 110 % of control; (endpoint: mean survival time, dose: 50.0 mg/kg/injection, schedule: Q01DX009 (ip), vehicle: Klucel (hydroxypropylcellulose) (HPC)) 98 % of control; (endpoint: mean survival time, dose: 100.0 mg/kg/injection, schedule: Q01DX009 (ip), vehicle: Klucel (hydroxypropylcellulose) (HPC)) 108 % of control; (endpoint: mean survival time, dose: 200.0 mg/kg/injection, schedule: Q01DX009 (ip), vehicle: Klucel (hydroxypropylcellulose) (HPC)) 94 % of control and 106 % of control.

On to `N#CC12OC1(C#N)C(=O)C=CC2=O` (configuration not stated), for which the T/C is 104 % of control (endpoint: mean survival time, dose: 6.25 mg/kg/injection, schedule: Q01DX001 (ip), vehicle: saline); 89 % of control (endpoint: mean survival time, dose: 12.5 mg/kg/injection, schedule: Q01DX001 (ip), vehicle: saline); 93 % of control (endpoint: mean survival time, dose: 25.0 mg/kg/injection, schedule: Q01DX001 (ip), vehicle: saline).

Take `CN(C)c1ccc(N=Nc2ccc(CI)cc2)cc1`: the T/C reads like this: (endpoint: mean survival time, dose: 25.0 mg/kg/injection, schedule: Q04DX003 (ip), vehicle: Klucel (hydroxypropylcellulose) (HPC)) 89 % of control; (endpoint: mean survival time, dose: 50.0 mg/kg/injection, schedule: Q04DX003 (ip), vehicle: Klucel (hydroxypropylcellulose) (HPC)) 112 % of control; under setting [3], 96 % of control; under setting [4], 93 % of control.

With `CCOC(=O)CCC1(CCC(=O)OCC)OCCO1`, the T/C by setting is: under setting [1], 93 % of control; under setting [5], 100 % of control; under setting [2], 98 % of control; under setting [6], 96 % of control; (endpoint: mean survival time, dose: 400.0 mg/kg/injection, schedule: Q04DX003 (ip), vehicle: saline with Tween-80) 98 % of control; (endpoint: mean survival time, dose: 400.0 mg/kg/injection, schedule: Q04DX003 (ip), vehicle: saline) 100 % of control.
